Counter-ions that a name gives are not always drawn.
Key:
Test in all cases: calcium imaging (Fluo4-AM, FLIPR) in transfected cells
Format in all cases: cell-based
Conditions in all cases: agonist; HEK 293T-Galpha16gust44 cells; 2.5 mM probenecid at dye loading; lowest activating concentration, no EC50
ggTas2r7 = target: T1, ggTas2r7 (Gallus gallus, UniProt Q2AB81)
T1 construct: gene TAS2R7; cDNA in pcDNA5FRT, transiently expressed in HEK 293T-Galpha16gust44 cells
T1 sequence (Q2AB81 1-321): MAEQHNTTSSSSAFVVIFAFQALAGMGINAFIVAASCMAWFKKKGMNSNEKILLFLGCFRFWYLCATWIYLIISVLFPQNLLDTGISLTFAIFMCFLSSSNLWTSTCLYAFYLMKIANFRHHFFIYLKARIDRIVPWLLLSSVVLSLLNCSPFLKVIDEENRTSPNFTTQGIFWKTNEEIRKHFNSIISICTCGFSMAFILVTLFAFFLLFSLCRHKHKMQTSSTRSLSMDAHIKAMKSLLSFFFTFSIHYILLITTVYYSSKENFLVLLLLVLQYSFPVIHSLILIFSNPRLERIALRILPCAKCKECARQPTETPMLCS

ggTas2r2 = target: T2, ggTas2r2 (Gallus gallus, UniProt A0A1D5PXM6)
T2 construct: gene LOC101747503; cDNA in pcDNA5FRT, transiently expressed in HEK 293T-Galpha16gust44 cells
T2 sequence (A0A1D5PXM6 1-311): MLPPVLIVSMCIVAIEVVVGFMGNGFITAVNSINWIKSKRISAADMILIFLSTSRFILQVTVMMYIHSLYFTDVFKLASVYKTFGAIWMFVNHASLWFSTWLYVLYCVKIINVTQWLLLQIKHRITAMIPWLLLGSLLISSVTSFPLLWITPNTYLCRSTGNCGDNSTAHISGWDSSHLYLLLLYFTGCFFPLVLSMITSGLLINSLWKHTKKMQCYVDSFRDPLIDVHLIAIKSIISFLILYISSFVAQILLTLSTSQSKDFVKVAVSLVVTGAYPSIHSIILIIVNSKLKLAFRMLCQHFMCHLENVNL

ggTas2r1 = target: T3, ggTas2r1 (Gallus gallus, UniProt Q2AB83)
T3 construct: gene TAS2R40; cDNA in pcDNA5FRT, transiently expressed in HEK 293T-Galpha16gust44 cells
T3 sequence (Q2AB83 1-311): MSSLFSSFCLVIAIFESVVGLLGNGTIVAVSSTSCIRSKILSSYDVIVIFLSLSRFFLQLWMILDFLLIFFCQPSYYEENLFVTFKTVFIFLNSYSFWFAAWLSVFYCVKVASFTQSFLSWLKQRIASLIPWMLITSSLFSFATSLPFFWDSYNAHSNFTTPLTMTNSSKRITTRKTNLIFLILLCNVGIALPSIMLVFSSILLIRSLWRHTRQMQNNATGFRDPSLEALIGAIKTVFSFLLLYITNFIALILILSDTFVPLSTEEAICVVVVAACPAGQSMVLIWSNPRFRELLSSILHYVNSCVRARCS

| Compound | Threshold Concentrations (mM) / In-Vitro (ggTas2r7) [mM] | Threshold Concentrations (mM) / In-Vitro (ggTas2r2) [mM] | Threshold Concentrations (mM) / In-Vitro (ggTas2r1) [mM] |
| --- | --- | --- | --- |
| Oc1cc(O)c2c(c1)O[C@H](c1ccc(O)c(O)c1)[C@@H](O)C2 [(+)-catechin] | 0.3 | – | – |
| C=C[C@H]1CN2CC[C@H]1C[C@H]2[C@H](O)c1ccnc2ccc(OC)cc12 [quinine hydrochloride] | 0.01 | 0.01 | 0.01 |
